Laboratory results published in patent US20020128434A1, “Alpha-(1,3-dicarbonylenol ether) methyl ketones as cysteine protease inhibitors” (priority 1993, published 2002).
Values after ≈ are worked out from the molar mass of the structure shown. Structures can show the parent of a compound that is named as a salt. Where two headings read alike, the source gives them in different places. *1 amine or outer side, *2 acyl side, *3 side chain or, on linkers, in order; H or OH if unused. Where a SMILES comes first, the peptide text is derived from it. [ ]: non-standard residue; d: D form. The star is where a group is joined. ξ: configuration not given here. hPhe = N[C@@H](CCc1ccccc1)C(=O)O; Morpholide = C1CN(*)CCO1; ξF = NC(Cc1ccccc1)C(=O)O; CO = O=C([*:1])[*:2]; CH2F = FC*

Legend:
[1] = tested on: calpain (Calcium Activated Neutral Protease); assay: Calpain inhibition; format: biochemical; settings: incubated 30 minutes at 37° C.; tested at 20 μM, 2 μM, 200 nM
Method: The percent inhibition of one inhibitor, Acetyl-Leucyl-Leucyl-Phenylalanyl-α-(4-oxy-dihydrofuran-2-one) methyl ketone, on calpain (Calcium Activated Neutral Protease) was determined as follows. A 50 mM Hepes, 10 mM calcium chloride, 5 mM cysteine, 1 mM β-mercaptoethanol, pH 7.5 buffer solution was prepared. The enzyme was activated for 1 minute in the buffer solution at room temperature. Inhibitor was prepared as stock solution in dimethylformamide. Inhibitor and enzyme/buffer were incubated for 30 minutes at 37° C. Final concentrations of inhibitor were 20 μM, 2 μM, and 200 nM. Enzyme activity was followed with 200 μM Boc-Valnyl-Leucyl-Lysine-AFC substrate by the release of free fluorescent detecting group over minutes at 37° C., as compared to the control.

[2] = biological target: T1, Cathepsin B, purified from human liver (Homo sapiens, UniProt P07858); assay: In vitro evaluation of inhibitors with purified cathepsin B; format: biochemical; settings: purified cathepsin B; read-out: IC50 Cat B
T1 construct: Cathepsin B, purified from human liver; purchased Enzyme Systems Products (Dublin, Calif.); host or cells: human liver (tissue-purified)
Method: Enzyme: Cathepsin B, purified from human liver, is from Enzyme Systems Products (Dublin, Calif.). The activity is 50 mU per ml at 30° C., in 52 mM sodium phosphate, pH 6.2, 31 mM DTT, 2.1 mM EDTA, with 0.2 mM Z—Arg—Arg-7-amino-4-trifluoromethyl-coumarin as a substrate. Specific activity is 8330 mU per mg protein. (1 mU=1 nmol per min.)
Substrate Boc—Leu—Arg—Arg-7-amino-4-trifluoromethyl-coumarin-2HBr is from Enzyme Systems Products (Dublin, Calif.) and is known to be a specific substrate for cathepsin B. A 20 mM solution is made in DMF and stored at […].
Candidate inhibitors are dissolved in DMF and diluted to 20 mM and stored at […]. Dilutions are made in assay buffer.
The percent inhibition and the inhibitor concentration at which the enzyme is 50% inhibited (IC50) are determined as follows. Five μl of assay buffer (50 mM potassium phosphate pH 6.2, 2 mM EDTA, 5 mM DTT) on ice for 30 min. The inhibition is initiated by the addition of […] inhibitor each to the 480 μl aliquots. The 485 μl aliquot with enzyme is used as a control and thus receives no inhibitor. The enzyme/inhibitor mixtures are incubated 10 min. on ice and assayed for cathepsin B activity as follows:
Cathepsin B assay: To 490 μl of pre-incubated inhibitor/enzyme mixtures in assay buffer in 0.5 ml cuvette at 37° is added 10 μl of the substrate. Final inhibitor concentrations become 2000 nM, 200 nM, and 20 nM for the 200 μM, 20 μM and 2 μM stock concentrations, respectively. Activity is followed by release of free AFC over 5 min. The change in fluorescence is (fluorescence units at t=6)−(fluorescence units at t=1) with a Perkin-Elmer LS-5B spectrofluorometer (ex=400 nm, em=505 nm). The percent inhibition is determined by comparing the change in fluorescence units of the three sample concentrations of inhibited enzyme to the change in fluorescence units of the control enzyme. The percent inhibition is calculated as:
100−(fl. units of sample/fl. units of control×100).
The IC50 is ascertained by plotting percent inhibition vs. inhibitor concentration on the log scale. The IC50 is the concentration of the inhibitor (nM) at which the enzyme is inhibited by 50%.

[3] = tested on: Pneumocystis carinii; assay: In vitro inhibition of Pneumocystis carinii in culture with human embryonic lung fibroblast monolayers; format: cell-based
Method: The percent of inhibition is calculated as 100−(the number of P. carinii trophozoites in a treated cell culture/number of trophosites of the control)×100.
Methods. The drugs dissolved in dimethyl sulfoxide were diluted to concentrations of 10 μg/ml for compound 3 and […] for compound 9 in minimum essential medium used for the culture of human embryonic lung fibroblasts. […] Cell cultures in 24-well plates were innoculated with P. carinii trophozoites (final concentration, about 7×10^5 per ml) obtained from infected rat lungs. Each culture plate contained untreated and treated wells. Plates were incubated at 35° C. in a gas mixture of 5% O2, 10% CO2, 85% N2 for up to 7 days. Plates were sampled on days 1, 3, 5 and 7 by removal of 10 μl amounts after agitation of the cultures. The samples were placed on slides in 1-cm^2 areas, fixed in methanol and stained with Giemsa stain; and then they were examined microscopically as unknowns by two individuals. For each parameter there were four wells, making eight values for each parameter. Standard errors range from 3-13%. Cultures were spiked with fresh drugs on days 2, 4 and 6.

[4] = tested on: T. cruzi; assay: Inhibition of T. cruzi in infected cells, cell line BHK; format: cell-based; settings: days before cell monolayer is destroyed by infection; 20 μM, daily change of medium plus inhibitor
Method: (§1) Survival time is measured in days before the cell monolayer is destroyed by the infection. Irradiated BHK and J774 cells (six well plates) were infected with T. cruzi and simultaneously treated with 20 μM (3 ml total volume) with daily change of culture medium+plus inhibitor).
(§2) Cultivation and preparation of T. cruzi. Cloned and uncloned populations were derived from the strains Brasil, and CA-I and are cryopreserved in liquid nitrogen. Axenically cultured epimastigotes are maintained in exponential growth phase by weekly passage in Brain Heart Infusion-Tryptose medium (BHT media as given in Cazzulo, Cazzulo, Martinez, and Cazzulo, Some Kinetic Properties of a Cysteine Proteinase (Cruzipain) from Trypanosoma Cruzi. 33 Mol. Biochem. Parasitol. 33-42 (1990)), supplemented with […] 10% (v/v) heat inactivated fetal calf serum (FCS). Different host cell lines (J774 mouse macrophage, BHK, etc.) are cultured with RPMI-1640 supplemented with 5% FCS at 37° in a humidified atmosphere containing 5% CO2. Trypomastigotes liberated from the host cells are used to infect new cultures for serial maintenance of the parasite in cell culture. The protocols used for the in vitro assays of cysteine protease inhibitors are essentially as described by Harth, Andrews, Mills, Engel, Smith, and McKerrow, Peptide-Fluoromethyl Ketones Arrest Intracellular Replication and Intercellular Transmission of Trypanosoma Cruzi. 58 Mol. Biochem. Parasitol. 17-24 (1993), with the exception that in some experiments, the host cells are irradiated (2400 RADs) before infection to prevent them from dividing.

[5] = tested on: T. cruzi; assay: Inhibition of T. cruzi in infected cells, cell line J774; format: cell-based; settings: days before cell monolayer is destroyed by infection; 20 μM, daily change of medium plus inhibitor
Method: as §1, §2

[6] = physchem; settings: 20 °C, water, thermodynamic from solid
[7] = tested on: malarial inhibition; assay: Another test of malarial inhibition
[8] = biological target: T2, Cathepsin H (Homo sapiens, UniProt P09668); assay: Cathepsin H inhibition; format: biochemical
T2 sequence (P09668 98-335): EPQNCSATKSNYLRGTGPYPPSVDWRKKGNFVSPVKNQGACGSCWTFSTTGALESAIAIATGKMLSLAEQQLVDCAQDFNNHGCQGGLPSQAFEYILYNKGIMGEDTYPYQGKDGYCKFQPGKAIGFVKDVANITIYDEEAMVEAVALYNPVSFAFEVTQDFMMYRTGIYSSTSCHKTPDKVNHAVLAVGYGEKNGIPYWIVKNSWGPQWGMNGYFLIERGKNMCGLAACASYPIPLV

[9] = not given; remark: listed apart in the source

CC(=O)N[C@@H](CC(C)C)C(=O)N[C@@H](CC(C)C)C(=O)N[C@@H](Cc1ccccc1)C(=O)COC1=CC(=O)OC1 [Acetyl-Leucyl-Leucyl-Phenylalanyl-α-(4-oxy-dihydrofuran-2-one) methyl ketone]
concentration at which inhibitor showed activity against calpain [1]: less than 2 μM

Cc1cc(OCC(=O)[C@H](CCc2ccccc2)NC(=O)[C@H](Cc2ccccc2)NC(=O)N2CCOCC2)cc(=O)o1 [Compound 3, N-Morpholinecarbonyl-L-phenylalanyl-L-homophenylalanyl-α-(4-oxy-6-methyl-2-pyrone) methyl ketone]
IC50 [2]: 112 nM | inhibition at 10 µg/mL ([3]; 24 h, Day 1, 10 μg/ml for compound 3, 10 μM/ml for compound 9, read-out: Percent Inhibition, Day 1): 23% | inhibition at 10 µg/mL ([3]; 48 h, Day 2, 10 μg/ml for compound 3, 10 μM/ml for compound 9, read-out: Percent Inhibition, Day 2): 44% | inhibition at 10 µg/mL ([3]; 72 h, Day 3, 10 μg/ml for compound 3, 10 μM/ml for compound 9, read-out: Percent Inhibition, Day 3): 39% | inhibition at 10 µg/mL ([3]; 96 h, Day 4, 10 μg/ml for compound 3, 10 μM/ml for compound 9, read-out: Percent Inhibition, Day 4): 13%

O=C(COc1cc(=O)oc2ccccc12)[C@H](CCc1ccccc1)NC(=O)[C@H](Cc1ccccc1)NC(=O)N1CCOCC1 [Compound 6, N-Morpholinecarbonyl-L-phenylalanyl-L-homophenylalanyl-α-(4-oxy-coumarin) methyl ketone]
Survival Time, Cell line BHK [4]: ≥ 16 days | IC50 [2]: 45 nM | Survival Time, Cell line J774 [5]: ≥ 16 days | melting point: 115 to 119 °C

O=C1OCC(OCC(=O)[C@H](CCc2ccccc2)NC(=O)[C@H](Cc2ccccc2)NC(=O)N2CCOCC2)=C1c1ccccc1 [Compound 9, N-Morpholinecarbonyl-L-phenylalanyl-L-homophenylalanyl-α-(4-oxy-3-phenyl-dihydrofuran-2-one) methyl ketone]
Survival Time, Cell line BHK [4]: 6 days | IC50 [2]: 36 nM | Survival Time, Cell line J774 [5]: 4 days | melting point: 114 to 116 °C

NCCCC[C@H](NC(=O)[C@H](Cc1ccccc1)NC(=O)N1CCOCC1)C(=O)COC1=C(c2ccccc2)C(=O)OC1 [Compound 11, N-Morpholinecarbonyl-L-phenylalanyl-L-lysyl-α-(4-oxy-3-phenyl-dihydrofuran-2-one) methyl ketone]
IC50 [2]: 5 nM | melting point: 140 to 145 °C

O=C1C=C(OCC(=O)[C@H](CCc2ccccc2)NC(=O)[C@H](Cc2ccccc2)NC(=O)N2CCOCC2)CO1 [Compound 12, N-Morpholinecarbonyl-L-phenylalanyl-L-homophenylalanyl-α-(4-oxy-dihydrofuran-2-one) methyl ketone]
IC50 [2]: 10 nM | solubility [6]: 277 µg/mL (≈ 517 µM)

CCC1OC(=O)C(OCC(=O)[C@H](CCc2ccccc2)NC(=O)[C@H](Cc2ccccc2)NC(=O)N2CCOCC2)=C1C (stereo partly drawn) [Compound A2, N-Morpholinecarbonyl-L-phenylalanyl-L-homophenylalanyl-α-(3-oxy-5-ethyl-4-methyl 2(5H)furanone) methyl ketone]
malarial inhibition [7]: particularly effective

N[C@@H](CCc1ccccc1)C(=O)COC1=CC(=O)OC1 [L-Homophenyl-α-(4-oxy-dihydrofuran-2-one)methyl ketone hydrochloride]
IC50 [8]: 251 nM

Cc1cc(OCC(=O)[C@@H](N)CCc2ccccc2)cc(=O)o1 [L-Homophenylalanyl-α-(4-oxy-(6-methyl-2-pyrone)methyl ketone]
IC50 [8]: 118 nM

O=C(N[C@@H](CCc1ccccc1)C(=O)CF)C(Cc1ccccc1)NC(=O)N1CCOCC1 (stereo partly shown) [Mu—Phe—HPhe—CH2F, Morpholine-carbonyl-phenylalanyl-homophenylalanyl-fluoromethylketone, reference compound] ({Morpholide-CO}-[ξF]-[hPhe]-CH2F)
Survival Time, Cell line BHK [4]: ≥ 16 days | Survival Time, Cell line J774 [5]: ≥ 16 days | aqueous solubility ([9]; 20° C., distilled and deionized water): 140 µg/mL (≈ 307 µM)

benzoxycarbonyl-phenylalanyl-alanylfluoromethyl ketone [Z—Phe—Ala—CH2F]
aqueous solubility ([9]; 14° C.): 45 µg/mL
